Columns and labels:
[1] = molecular target: Dihydroorotate dehydrogenase (quinone), mitochondrial (Homo sapiens, UniProt Q02127); test: Inhibition of human DHODH using dihydroorotate as substrate and Q6 as coenzyme by DCIP dye based spectrophotometry analysis
[2] = tested on: MOLM-13; test: Antiproliferative activity against human MOLM-13 cells incubated for 72 hrs by CellTiter-Glo based multilabel reader analysis; type: functional, cell-based; settings: MOLM-13, 72 h

Chain of Dihydroorotate dehydrogenase (quinone), mitochondrial (Q02127 whole entry): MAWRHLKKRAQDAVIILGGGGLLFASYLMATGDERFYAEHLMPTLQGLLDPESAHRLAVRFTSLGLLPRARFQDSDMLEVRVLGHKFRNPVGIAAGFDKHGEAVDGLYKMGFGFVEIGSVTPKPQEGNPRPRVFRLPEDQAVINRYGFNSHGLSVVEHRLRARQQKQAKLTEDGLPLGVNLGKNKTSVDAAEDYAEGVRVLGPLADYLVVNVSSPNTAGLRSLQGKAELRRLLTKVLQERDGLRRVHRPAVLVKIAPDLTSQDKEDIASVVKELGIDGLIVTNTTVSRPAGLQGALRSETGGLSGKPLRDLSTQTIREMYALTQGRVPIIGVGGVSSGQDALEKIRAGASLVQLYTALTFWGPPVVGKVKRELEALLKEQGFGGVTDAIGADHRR

IC50 [1] [nM]	IC50 [2] [nM]	Compound
3	1.2	CCn1c(CO)nn(-c2cc(OC(C)C(F)(F)F)c3c(Nc4c(F)cccc4Cl)nn(C)c3c2F)c1=O (configuration not stated)
2	0.7	CCn1c(CO)nn(-c2cc(O[C@@H](C)C(F)(F)F)c3c(Nc4c(F)cccc4Cl)noc3c2F)c1=O
2	0.7	CCn1c(CO)nn(-c2cc(O[C@@H](C)C(F)(F)F)c3c(Nc4c(F)cccc4Cl)nn(C)c3c2F)c1=O
2	5.7	CCn1c(CO)nn(-c2cc(O[C@@H](C)C(F)(F)F)c3c(Nc4c(C)ccnc4Cl)nn(C)c3c2F)c1=O
8	3	CCn1c(CO)nn(-c2cc(OC(C)C(F)(F)F)c3c(Nc4c(F)cccc4Cl)nn(C)c3c2)c1=O (configuration not stated)
1	0.1	Cc1ccnc(Cl)c1Nc1nn(C)c2c(F)c(-c3cn(C)c(C(C)(C)O)n3)cc(O[C@@H](C)C(F)(F)F)c12
